Tests used:
[1] = test system: macrophage RAW 264.7 cells; assay: LPS-induced NO2− formation in macrophage RAW 264.7 cells (Griess); type: cell-based; conditions: 25 μM pretreatment 6 hours, LPS 1.0 μg/mL 18 hours
Method: In this example, the ability of embodiments of the disclosed donor compound to provide anti-inflammatory activity was evaluated. To investigate the potential protective effects of the developed donors, pretreated macrophage RAW 264.7 cells were pretreated with γ-KetoTCM-1 (25 μM) for 6 hours, followed by an 18-hour incubation with lipopolysaccharide (LPS, 1.0 μg/mL) to induce an inflammatory response. This response is accompanied by an increase in NO production, which was monitored by measuring nitrite (NO2−) accumulation. To determine whether the observed effects were due to COS/H2S release, control experiments with γ-KetoTCM-3, γ-KetoCM-1, and GYY4137 under the identical condition also were performed. GYY4137 was used as a positive control because it has shown anti-inflammatory effects previously, and because it generates a slow, continuous release of H2S.
In this example, macrophage RAW 264.7 cells were seeded in a 24-well plate (5×10^5 cells/well) containing 0.50 mL of DMEM and incubated at 37° C. under 5% CO2 for 24 hours. The confluent cells were washed with PBS and incubated with either γ-KetoTCM-1, γ-KetoTCM-3, γ-KetoCM-1, or GYY4137 (25.0 μM) at 37° C. for 6 hours. Compounds were then removed by washing cells with PBS and these pretreated cells were incubated in FBS-free DMEM containing LPS (1.00 μg/mL) for 18 hours. NO2− levels were measured by using a Griess Reagent Kit.

[2] = COS/H2S release monitored by PNA formation (UV-Vis) in PBS containing CA; type: physicochemical; conditions: for half-life at 50 μM: PBS containing carbonic anhydrase (CA); for half-life at 50 μM / kobs (COS/H2S releasing kinetics): 37° C.; for kobs (COS/H2S releasing kinetics): CA 25 μg/mL, 50 μM; for krel: relative to γ-KetoTCM-1 at pH 7.4
Method: To investigate COS/H2S release from donor compound embodiments, γ-KetoTCM-1 (50 μM) was incubated in PBS (pH 7.4, 10 mM) containing CA (25 μg/mL) and H2S release was detected by monitoring para-nitroaniline (PNA) formation at 37° C. In particular, a γ-KetoTCM-1 stock solution (15.0 μL, 10.0 mM in DMSO) was added to 3.00 mL of PBS (pH 6.00, 7.40 or 8.00, 10.0 mM) containing CA (25.0 μg/mL) in a quartz UV cuvette. The absorbance (250-500 nm) was measured and recorded by using Agilent Cary 100 or Cary 60 UV-Vis spectrometers at 37° C. kobs was then obtained by plotting the absorbance ratio of PNA and γ-KetoTCM-1 versus time and t1/2 was calculated by dividing In(2) by kobs.
In this example, pH effects on COS/H2S release were investigated by incubating γ-KetoTCM-1 (50 μM) in PBS (pH 6.0-8.0) and monitoring with a UV-Vis spectrometer. […] In particular, a γ-KetoTCM-1 stock solution (15.0 μL, 10.0 mM in DMSO) was added to 3.00 mL of PBS (pH 6.00, 10.0 mM) containing CA (25.0 μg/mL) in a 3-mL UV cuvette. The absorbance (250-500 nm) was measured and recorded at 37° C. kobs was then obtained by plotting the absorbance ratio of PNA and γ-KetoTCM-1 vs time.

HeLa cells = assay: H2S delivery in HeLa cells imaged with SF7-AM fluorescent probe; type: cell-based; conditions: 100 μM, 2 hours
Method: In this example, it was evaluated whether γ-KetoTCM-based donors can be activated to deliver H2S in cellular environments. SF7-AM, a cell-trappable H2S fluorescent probe, was used to monitor H2S accumulation from γ-KetoTCM-1 in HeLa cells. In the absence of γ-KetoTCM-1, no fluorescent signal from SF7-AM was observed, indicating negligible endogenous H2S (FIG. 9, left column, including the top and bottom images).
HeLa cells were plated in poly-D-lysine coated plates (MatTek) containing 2.00 mL of DMEM and incubated at 37° C. under 5% CO2 for 24 hours. The confluent cells were washed with PBS and then co-incubated with SF7-AM (5.00 μM) and NucBlue nuclear dye (2 drops) for 30 minutes. The cells were then washed with PBS and incubated with either γ-KetoTCM-1 (100 μM) or γ-KetoCM-1 (100 μM) alone for 2 hours. Prior to imaging, the cells were washed with PBS and bathed in 2.00 mL of PBS. Cell imaging was performed on a Leica DMi8 fluorescent microscope.

[3] = H2S release observed with an H2S electrode at different pH; type: physicochemical; conditions: PBS pH 6.0-8.0
Description: H2S release was also observed by using an H2S electrode, confirming that H2S was released in this system and such H2S release was pH-dependent (FIGS. 3A and 3B). This example therefore establishes that COS/H2S release from compound embodiments of the present disclosure can be pH dependent.

[4] = COS/H2S release monitored by PNA formation (UV-Vis) in PBS containing BSA and CA; type: physicochemical
Method: In this example, compound activation and subsequent COS/H2S release in PBS containing bovine serum albumin (BSA) was evaluated to mimic a complex biological environment. γ-KetoTCM-1 (50 μM) was incubated in PBS (pH 7.4, 10 mM) containing BSA (5 mg/mL) and CA (25 μg/mL) at 37° C. In particular, A γ-KetoTCM-1 stock solution (15.0 μl_, 10.0 mM in DMSO) was added to 3.00 mL of PBS (pH 7.40, 10.0 mM) containing BSA (5.00 mg/mL) and CA (25.0 μg/mL) in a quartz UV cuvette. The absorbance (250-500 nm) was measured and recorded by using an Agilent Cary 100 UV-Vis spectrometer at 37° C.

[5] = H2S production measured by methylene blue (MB) assay in PBS containing BSA and CA; type: physicochemical; conditions: 37° C.
Method: Using the same conditions, H2S production was measured at different time points using the MB assay (FIG. 5A, curve labeled with the “▾” symbol). The MB assay allows for H2S quantification from the reaction of H2S with N,N-dimethyl-p-phenylenediamine in the presence of FeCl3 and acid to produce methylene blue (MB, λmax=670). In the MB assay, a γ-KetoTCM-1 stock solution (100 μL, 10.0 mM in DMSO) was added to 20.0 mL of PBS (pH 7.40, 10.0 mM) containing BSA (5.00 mg/mL) and CA (25.0 μg/mL) in a 25-mL scintillation vial at 37° C. Next, 0.300 mL aliquots of the reaction mixture were transferred to UV cuvettes containing 0.300 mL of MB cocktail at different time points. The MB reaction mixture was incubated at room temperature for 1 hour and the precipitate was removed using syringe filters. The absorbance at 670 nm was then measured and was converted to H2S concentration by using the H2S calibration curve in FIG. 6. […] The MB solution was allowed to react with H2S for 1 hour before measuring the absorbance at 670 nm.
The linearity between these two methods was lost after 60 minutes due to the oxidation of H2S in the MB assay at extended incubation times (FIG. 5A). […] The absorbance at 670 nm was then measured and converted to H2S concentration by using the H2S calibration curve in FIG. 6. […]

[6] = Effects of cellular nucleophiles on COS/H2S release (PNA formation, UV-vis); type: physicochemical; conditions: PBS pH 7.4, Cys, NAC, Hcy, GSH, Lys, Ser, Gly, GSSG, 4-hour incubation, 37° C.
Method: To determine the effects of cellular nucleophiles on COS/H2S release, γ-KetoTCM-1 was incubated in […] PBS buffer (pH 7.4, 10 mM) containing (1) no cellular nucleophile (FIG. 4, bar 1); or 250 μM of Cys (FIG. 4, bar 2), 250 μM of N-acetyl cysteine (NAC) (FIG. 4, bar 3), 250 μM of homocysteine (Hcy) (FIG. 4, bar 4), 250 μM of GSH […] (FIG. 4, bar 5), 250 μM of lysine (Lys) (FIG. 4, bar 6), 250 μM of serine (Ser) (FIG. 4, bar 7), 250 μM of glycine (Gly) (FIG. 4, bar 8), or 250 μM of oxidized glutathione (GSSG) (FIG. 4, bar 9) at 37° C. PNA formation was monitored and recorded after a 4-hour incubation using UV-vis spectroscopy.

Row | half-life at 50 μM ([2]; pH 7.4, pH 7.4 PBS, ln(2)/kobs) | Structure (SMILES) | effect on LPS-induced NO2− production [1] | kobs (COS/H2S releasing kinetics) ([2]; pH 7.4 PBS) | krel ([2]; pH 7.4 PBS) | SF7-AM fluorescence (H2S accumulation) (HeLa cells) | further results
1 |  | C1COCCN1.COc1ccc(P(=S)(S)N2CCOCC2)cc1 (stereo not drawn) [GYY4137, reference compound] | less pronounced effect |  |  |  | 
2 | 13.4 ± 0.3 h | CC(=O)CCOC(=O)Nc1ccc([N+](=O)[O-])cc1 [γ-KetoCM-1] | reduced NO2− levels, although to a lesser extent than γ-KetoTCM-1 | 1.44 ± 0.03 ×10^−5 s^−1 | 0.32 | failed to provide a SF7-AM signal | 
3 | 4.26 h | CC(=O)CCOC(=S)Nc1ccc([N+](=O)[O-])cc1 [γ-KetoTCM-1] | significantly reduced | 4.52±0.02 ×10^−5 s^−1 | 1.00 | significant increase in SF7-AM fluorescence | H2S release by H2S electrode [3]: pH-dependent; half-life at 50 μM ([4]; PBS containing BSA and carbonic anhydrase (CA), pH 7.4 PBS containing BSA (5 mg/mL), 37° C.): 0.24 ± 0.01 h; pseudo first-order rate constant kobs from fitting the UV-vis data ([4]; PBS pH 7.4, BSA 5 mg/mL, CA, 37° C.): 8.1±0.3 ×10^−4 s^−1; kobs (COS/H2S releasing kinetics) ([4]; pH 7.4 PBS containing BSA (5 mg/mL), CA, 37° C.): 81.0 ± 3.0 ×10^−5 s^−1; krel ([4]; pH 7.4 PBS containing BSA (5 mg/mL), relative to pH 7.4 without BSA): 18.0; H2S release efficiency ([5]; MB assay, 50 μM, PBS pH 7.4, BSA): 70%; pseudo first-order rate constant kobs from fitting the MB data ([5]; PBS pH 7.4, BSA 5 mg/mL, up to plateau (~60 minutes)): 8.6±0.9 ×10^−4 s^−1; half-life at 50 μM ([2]; pH 6, pH 6.0 PBS, ln(2)/kobs): 50.7 ± 0.8 h; half-life at 50 μM ([2]; pH 8, pH 8.0 PBS): 1.53 ± 0.03 h; kobs (COS/H2S releasing kinetics) ([2]; pH 6.0 PBS): 0.380 ± 0.006 ×10^−5 s^−1; krel ([2]; pH 6.0 PBS): 0.084; kobs (COS/H2S releasing kinetics) ([2]; pH 8.0 PBS): 12.6 ± 0.2 ×10^−5 s^−1; krel ([2]; pH 8.0 PBS): 2.79; PNA formation in presence of cellular nucleophiles versus background [6]: None of the tested nucleophiles resulted in substantial PNA formation
4 | 25.9 h | CC(=O)C(C)COC(=S)Nc1ccc([N+](=O)[O-])cc1 (stereo not drawn) [γ-KetoTCM-2] |  | 0.82 ± 0.02 ×10^−5 s^−1 | 0.188 |  | 
5 |  | CC(=O)C(C)(C)COC(=S)Nc1ccc([N+](=O)[O-])cc1 [γ-KetoTCM-3] | modest reduction |  |  |  | PNA released in PBS buffer (indicating COS/H2S release) ([2]; PBS pH 7.4, 37° C.): negligible

— patent US11981626B1, “Compound embodiments for hydrogen sulfide production and methods of making and using the same” (University of Oregon, priority 2018, dated 2024)
